Values quoted from earlier work as cited in patent publication US8888736B2, “High shear application in medical therapy” (H R D Corporation, priority 2010, dated 2014).
Converted amounts (≈) assume the structure as drawn. Like-named read-outs stand apart in the source and are kept apart here. Values belong to the compound of their own block, whether it stands above or below them.

Experiments:
[1] = believed to average around

Structure (SMILES): ClC=C(Cl)Cl [trichloroethylene]
solubility (water at 20° C.): 0.1 g/100 ml

solubility (in water at 21° C.): 0.678 % by weight
Structure (SMILES): CCCl [ethylchloride]

Structure (SMILES): C=C [ethylene]
solubility (water at 20° C.): 0.015 g/100 ml

Structure (SMILES): C=COC=C [divinyl ether]
solubility (water at 37° C.): 0.0749 mol/L (≈ 5250 µg/mL)

solubility (in water at 21° C.): 537 ppm
Structure (SMILES): C1CC1 [cyclopropane]

Structure (SMILES): S [hydrogen sulfide]
toxic level in the body [1]: 300-350 ppm

solubility (water at 20° C.): 0.0078 mol/L (≈ 503 µg/mL)
Structure (SMILES): CCCl [chloroethane]
